The source of these data is patent publication US6630489B1, “Quinoline derivatives as tyrosine kinase inhibitors” (Astrazeneca AB, priority 1999, dated 2003).

For one assay, the target named is T1, p56^lck enzyme (Homo sapiens, UniProt P06239).
T1 construct: fused on or other part: N-terminal 6-His tag
Nature of the assay: In vitro enzyme assay, Test (a): inhibition of p56lck phosphorylation of a tyrosine-containing polypeptide substrate (Elisa). The class given is biochemical. The note with it: inhibition of phosphorylation by p56lck. How it is done: (a) In vitro Enzyme Assay
The ability of test compounds to inhibit phosphorylation by the enzyme p56^lck of a tyrosine-containing polypeptide substrate was assessed using a conventional Elisa assay.
The following conventional procedure was used to obtain p56^lck enzyme. An EcoR1/Not1 fragment containing the entire coding sequence of p56^lck was generated by the technique of polymerase chain reaction (PCR) from Incyte clone No. 2829606. A 6-His tag was added to the sequence at the N-terminus during the PCR stage. Conventional sequence analysis identified a number of changes compared to the published sequence and these were found also to have been present in the original Incyte template. To achieve expression of the enzyme, the PCR fragment was inserted downstream of the polyhedrin promotor of pFASTBAC1 (Life Technologies Limited, Paisley, UK, Catalogue No. 10360-014). A recombinant Baculovirus was constructed using the Bac-to-Bac system (Life Technologies Limited). High Five insect cells (Invitrogen BV, PO Box 2312, 9704 CH Groningen, The Netherlands, Catalogue No. B855-02) were infected with the recombinant Baculovirus at a multiplicity of infection of 1 and incubated for 48 hours. The cells were harvested. […]

Assay [1] has as its system human peripheral blood mononuclear cells (T cell proliferation). Nature of the assay: In vitro T cell proliferation assay, Test (b)(i): T cell receptor stimulation (anti-CD3 antibody). The note with it: human PBMC, T cell receptor stimulation with anti-CD3 antibody, tritiated thymidine. The class given is cell-based. How it is done: (§1) (b) In vitro T Cell Proliferation Assays
(§2) The ability of test compounds to inhibit T cell proliferation was assessed by using human peripheral blood mononuclear cells and stimulation of the T cells by way of the T cell receptor or other than by way of the T cell receptor.
Peripheral blood mononuclear cells (PBMC) were isolated from heparinised (10 units/ml heparin) human blood by density centrifugation (Lymphoprep™; Nycomed) spinning initially at 2000 rpm at ambient temperature for 20 minutes. Cells at the interphase were transferred to clean tubes, diluted 1:1 with RPMI 1640 medium (Gibco) and spun at 2000 rpm at ambient temperature for 10 minutes. The cell pellet was resuspended in RPMI 1640 medium and spun at 1400 rpm at ambient temperature for 10 minutes. […]
(§3) The extent of inhibition of T cell proliferation at a range of concentrations of each test compound was determined and an IC50 value was calculated. […]
Aliquots (50 μl) of the T cell receptor stimulatory anti-CD3 antibody (Pharmingen Catalogue No. 30100D; 40 ng/ml in assay medium) were added to each well and the cells were incubated for 24 hours at 37° C. in a humidified (5%CO2/95% air) incubator. […] The cells were harvested onto a filter mat and radioactivity was counted using a Wallac 1450 Microbeta Plus liquid scintillation counter.

Assay [2] shares this test system. Nature of the assay: In vitro T cell proliferation assay, Test (b)(ii): non T cell receptor stimulation (PMA and Ionomycin). Format: cell-based. The conditions noted are these: human PBMC, stimulation with PMA and Ionomycin, tritiated thymidine. How it is done:
as §1, §2
Peripheral blood mononuclear cells (PBMC) were isolated from heparinised (10 units/ml heparin) human blood by density centrifugation (Lymphoprep™; Nycomed) spinning initially at 2000 rpm at ambient temperature for 20 minutes. Cells at the interphase were transferred to clean tubes, diluted 1:1 with RPMI 1640 medium (Gibco) and spun at 2000 rpm at ambient temperature for 10 minutes. The cell pellet was resuspended in RPMI 1640 medium and spun at 1400 rpm at ambient temperature for 10 minutes. The cell pellet was resuspended in RPMI 1640 medium and spun at 900 rpm at ambient temperature for 10 minutes to remove platelets. […]
as §3
Aliquots (50 μl) of a mixture of the cell stimulants PMA (phorbol-12-myristate-13-acetate, Sigma Catalogue No. P8139; 40 ng/ml) and Ionomycin (Sigma Catalogue No. I0684; 1.2 μM) were added to each well and the cells were incubated and analysed as described in paragraph (b)(i).

T1 sequence (P06239 whole entry, the tested form may be a part): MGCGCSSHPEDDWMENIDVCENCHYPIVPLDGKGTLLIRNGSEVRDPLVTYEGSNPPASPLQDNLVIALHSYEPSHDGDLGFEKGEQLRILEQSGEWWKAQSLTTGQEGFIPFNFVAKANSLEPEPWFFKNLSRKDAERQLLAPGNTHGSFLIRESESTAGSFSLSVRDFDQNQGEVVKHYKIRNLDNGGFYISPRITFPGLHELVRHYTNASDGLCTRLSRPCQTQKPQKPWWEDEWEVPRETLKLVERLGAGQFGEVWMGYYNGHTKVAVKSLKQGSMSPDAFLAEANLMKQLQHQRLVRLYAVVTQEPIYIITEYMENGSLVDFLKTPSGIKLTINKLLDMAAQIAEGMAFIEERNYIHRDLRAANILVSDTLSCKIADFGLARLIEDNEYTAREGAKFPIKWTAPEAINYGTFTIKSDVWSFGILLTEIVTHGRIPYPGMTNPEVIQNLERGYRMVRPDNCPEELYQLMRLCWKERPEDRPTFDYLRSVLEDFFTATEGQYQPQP

In the case of `COc1cc2nccc(Oc3ccc(Cl)cc3F)c2cc1C(=O)NCCCN1CCOCC1` [Example 1, 4-(4-chloro-2-fluorophenoxy)-7-methoxy-N-(3-morpholinopropyl)quinoline-6-carboxamide], the results for the IC50 (against p56^lck enzyme; in assay [1]; in assay [2]) were around 30 nM, around 700 nM and around 18000 nM, respectively.

By IC50 is commonly meant the midpoint of a concentration-inhibition curve. Lower therefore signals inhibition by little substance.
